Measurements reported in patent US10513567B2, “Polycations and methods of making and using thereof” (Georgia Tech Research Corporation, priority 2016, dated 2019).

Assay: Fragmentation (hydrolysis) of WCL pyridine adducts and oligocations in deuterated aqueous buffer followed by 1H NMR
Assay type: physicochemical
Procedure: The fragmentation of cationic adducts was followed by ^1H NMR in deuterated buffer, with the relative concentration of each species established by integration of unique resonances. Each adduct in Table 3 and Table 4 was thus examined in three independent runs.
Each adduct dinitrate was isolated, characterized, and heated at 50° C. in deuterated buffer; following the disappearance of the adduct by NMR, first-order rate constants of fragmentation were obtained.
Using the conditions of Table 4, three additional oligocations were prepared from the bis(pyridine) linkers as shown in Table 5. […] The stabilities of these compounds toward fragmentation under aqueous conditions were assessed by NMR in deuterated buffer, following the disappearance of the thiabicyclononane C—H resonance adjacent to the pyridine group (position g in FIG. 14) and the appearance of the corresponding resonance (4.3 ppm) for the diol product 4 (FIG. 6).

Structure (SMILES)	kfrag, pseudo first order fragmentation (50° C., deuterated buffer)	kfrag, pseudo first order fragmentation (37° C.)	krel (37° C., relative to 5i)	krel (50° C., relative to 5e)
Brc1ccc[n+](C2CCC3SC2CCC3[n+]2cccc(Br)c2)c1.O=[N+]([O-])[O-].O=[N+]([O-])[O-] (centres unmarked) [Compound 5f, 2,6-di-3-bromopyridinium-9-thiabicyclo[3.3.1]nonane dinitrate]	(6.59 ± 0.58) × 10^−2 h^−1	–	–	–
NC(=O)c1ccc[n+](C2CCC3SC2CCC3[n+]2cccc(C(N)=O)c2)c1.O=[N+]([O-])[O-].O=[N+]([O-])[O-] (centres unmarked) [Compound 5d, 2,6-di-3-carbamylpyridinium-9-thiabicyclo[3.3.1]nonane dinitrate]	(3.18 ± 0.32) × 10^−2 h^−1	–	–	–
COc1cc(Br)c[n+](C2CCC3SC2CCC3[n+]2cc(Br)cc(OC)c2)c1.O=[N+]([O-])[O-].O=[N+]([O-])[O-] (centres unmarked) [Compound 5i, 2,6-di-3-bromo-5-methoxylpyridinium-9-thiabicyclo[3.3.1]nonane dinitrate]	(7.51 ± 0.53) × 10^−2 h^−1	(0.55 ± 0.04) × 10^−2 h^−1	1	–
FC(F)(F)c1ccc[n+](C2CCC3SC2CCC3[n+]2cccc(C(F)(F)F)c2)c1.O=[N+]([O-])[O-].O=[N+]([O-])[O-] (centres unmarked) [Compound 5g, 2,6-di-3-trifluoromethylpyridinium-9-thiabicyclo[3.3.1]nonane dinitrate]	(74.8 ± 5.4) × 10^−2 h^−1	(5.87 ± 0.71) × 10^−2 h^−1	11	–
COC(=O)c1ccc[n+](C2CCC3SC2CCC3[n+]2cccc(C(=O)OC)c2)c1.O=[N+]([O-])[O-].O=[N+]([O-])[O-] (centres unmarked) [Compound 5b, 2,6-di-3-methoxycarbonylpyridinium-9-thiabicyclo[3.3.1]nonane dinitrate]	(3.03 ± 0.38) × 10^−2 h^−1	–	–	–
NC(=O)c1cc[n+](C2CCC3SC2CCC3[n+]2ccc(C(N)=O)cc2)cc1.O=[N+]([O-])[O-].O=[N+]([O-])[O-] (centres unmarked) [Compound 5e, 2,6-di-4-carbamylpyridinium-9-thiabicyclo[3.3.1]nonane dinitrate]	(1.62 ± 0.10) × 10^−2 h^−1	–	–	1.00
COC(=O)c1cc(Br)c[n+](C2CCC3SC2CCC3[n+]2cc(Br)cc(C(=O)OC)c2)c1.O=S(=O)([O-])C(F)(F)F.O=S(=O)([O-])C(F)(F)F (centres unmarked) [Compound 5l, 2,6-di-3-bromo-5-methoxycarbonylpyridinium-9-thiabicyclo[3.3.1]nonane ditriflate]	–	(10.9 ± 1.81) × 10^−2 h^−1	20	–
NC(=O)c1cc(Br)c[n+](C2CCC3SC2CCC3[n+]2cc(Br)cc(C(N)=O)c2)c1.O=S(=O)([O-])C(F)(F)F.O=S(=O)([O-])C(F)(F)F (centres unmarked) [Compound 5j, 2,6-di-3-bromo-5-carbamylpyridinium-9-thiabicyclo[3.3.1]nonane ditriflate]	–	(9.34 ± 0.87) × 10^−2 h^−1	17	–
COC(=O)c1cc(C(=O)OC)c[n+](C2CCC3SC2CCC3[n+]2cc(C(=O)OC)cc(C(=O)OC)c2)c1.O=S(=O)([O-])C(F)(F)F.O=S(=O)([O-])C(F)(F)F (centres unmarked) [Compound 5k, 2,6-di-3,5-dimethoxycarbonylpyridinium-9-thiabicyclo[3.3.1]nonane ditriflate]	–	(11.9 ± 1.13) × 10^−2 h^−1	22	–
N#Cc1ccc[n+](C2CCC3SC2CCC3[n+]2cccc(C#N)c2)c1.O=[N+]([O-])[O-].O=[N+]([O-])[O-] (centres unmarked) [Compound 5h, 2,6-di-3-cyanopyridinium-9-thiabicyclo[3.3.1]nonane dinitrate]	(10.8 ± 0.98) × 10^−2 h^−1	(1.14 ± 0.16) × 10^−2 h^−1	2.1	–
COC(=O)c1cc[n+](C2CCC3SC2CCC3[n+]2ccc(C(=O)OC)cc2)cc1.O=[N+]([O-])[O-].O=[N+]([O-])[O-] (centres unmarked) [Compound 5c, 2,6-di-4-methoxycarbonylpyridinium-9-thiabicyclo[3.3.1]nonane dinitrate]	(3.66 ± 0.33) × 10^−2 h^−1	(0.16 ± 0.01) × 10^−2 h^−1	0.3	–
